Data set [1] in a line: Short-term (7-day) toxicity study in female C57BLK/6-m wild type mice. Particulars: 1 mg/day ip, 7 days.
Method: Methods: OB3, [D-Leu-4]-OB3, hOB3 or vehicle was administered intraperitoneally once daily (1 mg/day, 7 days) to groups (n=6 mice per group) of C57BLK/6-m wild type mice of the same age as their obese (ob/ob or db/db) counterparts. The effects of the peptides on body weight gain, food and water intake, glucose homeostasis, serum insulin levels, and ability to thermoregulate were examined.
For a further data set, the target named is T1, OB-Ra (Mus musculus, UniProt P48356).
T1 construct: expressed in transfected cells; host or cells: COS-7
T1 sequence (P48356 22-894 isoform P48356-2 limits assumed): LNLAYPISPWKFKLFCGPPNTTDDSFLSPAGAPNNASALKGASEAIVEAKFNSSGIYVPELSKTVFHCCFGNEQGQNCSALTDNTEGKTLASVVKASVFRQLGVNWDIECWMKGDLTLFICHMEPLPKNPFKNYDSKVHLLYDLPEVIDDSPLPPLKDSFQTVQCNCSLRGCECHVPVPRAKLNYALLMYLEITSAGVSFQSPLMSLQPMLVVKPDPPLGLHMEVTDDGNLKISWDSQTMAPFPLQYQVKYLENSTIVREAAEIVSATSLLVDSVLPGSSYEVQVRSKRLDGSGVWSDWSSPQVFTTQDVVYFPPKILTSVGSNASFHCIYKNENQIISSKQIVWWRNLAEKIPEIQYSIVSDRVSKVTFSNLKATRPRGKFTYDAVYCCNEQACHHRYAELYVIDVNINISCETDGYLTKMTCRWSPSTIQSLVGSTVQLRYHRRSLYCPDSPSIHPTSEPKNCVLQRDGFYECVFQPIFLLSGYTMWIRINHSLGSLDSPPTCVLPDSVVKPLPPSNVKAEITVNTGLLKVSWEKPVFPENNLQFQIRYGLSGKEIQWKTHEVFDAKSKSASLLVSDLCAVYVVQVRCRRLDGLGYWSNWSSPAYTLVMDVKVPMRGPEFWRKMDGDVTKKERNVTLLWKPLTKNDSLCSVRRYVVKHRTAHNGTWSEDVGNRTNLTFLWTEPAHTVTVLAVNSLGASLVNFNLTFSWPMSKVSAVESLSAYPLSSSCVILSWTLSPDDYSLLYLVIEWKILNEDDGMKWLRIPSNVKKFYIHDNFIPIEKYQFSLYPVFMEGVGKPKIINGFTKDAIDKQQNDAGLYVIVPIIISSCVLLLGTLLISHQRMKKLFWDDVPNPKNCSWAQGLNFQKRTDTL
As to the kind of experiment: Inhibition of AP-OB fusion protein binding by COS-7 cells transfected with OB receptor. Particulars: 30 nM unlabelled mouse leptin. An excerpt: (§1) Initial experiments to determine the mechanism of action of LEP(116–130) utilized two highly sensitive in vitro bioassays routinely used to assess leptin binding and receptor activation (see e.g., White, et al., 1997. Proc. Natl. Acad. Sci. U.S.A. 94: 10657–10662). An alkaline phosphatase (“AP”)-leptin (“OB”) fusion protein (“AP-OB”) was used to measure inhibition of leptin binding in the absence or presence of recombinant mouse leptin (positive control) or peptide, by COS-7 cells transfected with the long (signaling) form of the mouse OB receptor (“OB-RL”). Signal transduction assays were done in GT1–7 cells cotransfected with AP reporter and OB-RL constructs. Secreted alkaline phosphatase (“SEAP”) activity in response to stimulation with mouse leptin or peptide was measured by chemiluminescence.
Two days after transfection, COS-7 cells were incubated with 1 nm human AP-OB fusion protein and bound AP activity was determined by chemiluminescence using the Great EscApe alkaline phosphatase detection kit as described by the manufacturer (CLON-TECH).
COS-7 cells were transfected with expression vector for OB-Ra. Two days after transfection, the cells were incubated with 1 nM human AB-OB fusion protein in the absence or presence of 30 nM mouse leptin, 300 μM LEP(116–130) or LEP(146–160). Bound AP activity was determined as has been described. See., e.g., Kamohara et al., 1997 Nature 389: 374–377.

Another data set concerns the target T2, OB-Rb (Mus musculus, UniProt P48356).
T2 construct: full-length leptin receptor (OB-Rb), the receptor isoform predominantly expressed in the hypothalamus; expressed in transfected cells; host or cells: GT1-7
T2 sequence (P48356 22-1162): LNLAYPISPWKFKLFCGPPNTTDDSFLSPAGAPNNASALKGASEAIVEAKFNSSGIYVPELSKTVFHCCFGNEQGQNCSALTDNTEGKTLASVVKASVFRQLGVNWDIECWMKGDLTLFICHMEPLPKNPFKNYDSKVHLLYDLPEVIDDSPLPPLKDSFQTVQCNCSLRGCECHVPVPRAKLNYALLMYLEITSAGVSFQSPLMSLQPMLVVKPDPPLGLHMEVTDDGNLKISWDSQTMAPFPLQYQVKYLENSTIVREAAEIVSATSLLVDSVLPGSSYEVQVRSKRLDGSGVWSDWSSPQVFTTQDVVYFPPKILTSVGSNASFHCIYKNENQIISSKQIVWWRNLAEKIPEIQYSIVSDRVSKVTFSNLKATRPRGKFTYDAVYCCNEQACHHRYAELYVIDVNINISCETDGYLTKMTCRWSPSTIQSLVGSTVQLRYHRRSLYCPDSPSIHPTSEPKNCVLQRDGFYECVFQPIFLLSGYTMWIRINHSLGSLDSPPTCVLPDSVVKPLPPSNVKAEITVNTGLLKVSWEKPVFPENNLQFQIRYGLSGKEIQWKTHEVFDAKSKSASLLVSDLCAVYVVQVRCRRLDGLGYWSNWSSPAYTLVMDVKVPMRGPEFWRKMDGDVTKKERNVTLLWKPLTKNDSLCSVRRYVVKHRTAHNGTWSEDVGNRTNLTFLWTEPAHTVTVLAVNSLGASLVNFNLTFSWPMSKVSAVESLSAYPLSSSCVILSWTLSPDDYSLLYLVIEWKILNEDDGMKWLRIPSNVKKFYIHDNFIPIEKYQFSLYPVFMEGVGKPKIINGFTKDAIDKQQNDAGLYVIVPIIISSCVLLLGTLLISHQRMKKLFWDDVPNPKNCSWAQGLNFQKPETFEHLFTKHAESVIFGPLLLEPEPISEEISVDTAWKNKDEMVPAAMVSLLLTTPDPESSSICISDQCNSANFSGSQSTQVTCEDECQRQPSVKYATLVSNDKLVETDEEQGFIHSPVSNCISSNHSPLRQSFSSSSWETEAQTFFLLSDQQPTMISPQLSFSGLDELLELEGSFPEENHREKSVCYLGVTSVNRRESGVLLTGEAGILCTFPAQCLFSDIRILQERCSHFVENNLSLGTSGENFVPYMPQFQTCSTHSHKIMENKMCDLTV
As to the kind of experiment: SEAP reporter gene signal transduction assay in GT1–7 cells cotransfected with HRRE-SEAP and OB-Rb. The class given is cell-based. Particulars: 6 nM mouse leptin, 24 h.
Text: as §1
Two days after transfection, the cells were stimulated with mouse leptin or leptin-related synthetic peptides for 24 hours. Growth media were harvested and SEAP activity was determined by chemiluminescence as described for AP-OB binding studies.
COS-7 and GT1–7 cells were cultured in DMEM supplemented with 10% fetal bovine serum, and transfected by the lipofectamine method. […] Supernatants were collected and SEAP reporter activities were measured by chemiluminescence using the GreatEscApe alkaline phosphatase detection kit as described by the manufacturer (CLONTECH). […]
Background: Reporter assays use an easily measured gene product as a stand-in for the process of interest.

Square brackets hold non-standard residues; d marks the D form. Ends that are not written are not given here. Peptide text beside a SMILES is read from it.

In the case of `CC(C)C[C@@H](NC(=O)[C@H](CO)NC(=O)[C@H](CS)NC(=O)[C@@H](N)CO)C(=O)N1CCC[C@H]1C(=O)N[C@@H](CCC(N)=O)C(=O)N[C@H](C(N)=O)[C@@H](C)O` [[D-Leu-4]-OB3, Ser-Cys-Ser-[D-Leu]-Pro-Gln-Thr] (H-SCS[dL]PQT-NH2), the Toxic effects entry in data set [1] was “no apparent toxic effects”.
For “SCSLPQT-NH2 [OB3, Ser-Cys-Ser-Leu-Pro-Gln-Thr]”, in data set [1], the Toxic effects entry is recorded as “no apparent toxic effects”.
On to SCHLPWA-NH2 [hOB3, S C H L P W A], for which the Toxic effects entry in data set [1] is reported as “no apparent toxic effects”.

B1: mouse leptin: recombinant mouse leptin used as positive control in binding and SEAP assays (protein, listed as Mus musculus)
chain: MCWRPLCRFLWLWSYLSYVQAVPIQKVQDDTKTLIKTIVTRINDISHTQSVSAKQRVTGLDFIPGLHPILSLSKMDQTLAVYQQVLTSLPSQNVLQIANDLENLRDLLHLLAFSKSCSLPQTSGLQKPESLDGVLEASLYSTEVVALSRLQGSLQDILQQLDVSPEC
As to B1, the “Competition of bound AP-OB” value with OB-Ra is given as “efficiently competed”. The “Increase in SEAP activity” value with OB-Rb stood at 11 fold.

Source of the values: US7208572B2, “Leptin-related peptides” (Albany Medical College, priority 1998, dated 2007).
